Results published in US20190128870A1, “Diagnostic Methods For Patient Specific Therapeutic Decision Making In Cancer Care” (Humeltis, priority 2016, published 2019).

Tests used:
[1] = system: Glioblastoma multiforme 3D aggregates (Glioblastoma 1); assay: Annexin V-PI flow cytometry of drug-treated Glioblastoma 1 3D aggregates; assay type: cell-based, human
Procedure: Two, freshly resected, native samples reached the laboratory directly from the pathologist within 2 hours of surgery. The two samples were treated separately and were labelled as “Glioblastoma 1” and “Glioblastoma 2”. […] The samples were processed according to protocol and drug sensitivity tests were performed using the viable, Sample 1. Samples for DNA and RNA isolation were also stored at −80° C., leaving the opportunity open for additional sequencing or comparative gene expression studies. Traditional out-growth cultures were also prepared from Glioblastoma sample 1 showing the strong viability and proliferative ability of the cells (FIG. 1.). Annexin: Annexin V is used as a non-quantitative probe to detect cells that express phosphatidylserine (PS) on their cell surface, an event found in apoptosis as well as other forms of cell death. The assay combines annexin V staining of PS and PE membrane events with the staining of DNA in the cell nucleus with propidium iodide (PI) or 7-Aminoactinomycin D (AAD-7), distinguishing viable cells from apoptotic cells and necrotic cells. Detection was performed by flow cytometry or a fluorescence microscope. […] Erbitux (Cetuximab): 4.8 mg/ml; […] Erlotinib similarly to Cetuximab is an EGFR inhibitor (the two drugs are frequently used clinically together).

glioblastoma tumour = assay: Treatment of the glioblastoma patient; assay type: in vivo, human
Procedure: The patient was treated with BCNU and the tumour was regressing within 2 weeks after the first administration of the drug.

[2] = system: Glioblastoma multiforme 3D aggregates; assay: CellTiter-Glo 3D Cell Viability Assay, glioblastoma drug sensitivity test; assay type: cell-based, human; settings: BCNU 0.3, 0.03, 0.003 mg/ml, FIGS. 3 & 4
Procedure: Toxicology assay: CellTiter-Glo® 3D Cell Viability Assay (Promega). The CellTiter-Glo® 3D Cell Viability Assay is a homogeneous, luminescent method to determine the number of viable cells in 3D cell culture based on quantitation of the ATP present, which is a marker for the presence of metabolically active cells.
Aggregates were prepared in 96-well plates and cultures were incubated with the following agents: cisplatin, erlotinib, vinorelbine, and pemetrexed. […] Following 24, 48 h or 72 h incubation, cells were labelled using Annexin V-PI and analyzed by flow cytometry or analysed by Promega CellTiter-Glo® 3D Cell Viability Assay Kit (Luminescent) (ATP detection kit)(FIGS. 3 & 4).

SMILES: C#Cc1cccc(Nc2ncnc3cc(OCCOC)c(OCCOC)cc23)c1 [Erlotinib]
- Annexin Pl++ Late apoptosis ([1]; 1 μM): 0.32%
- Pl+ ratio within Annexin+ Non-viable ([1]; 1 μM): 0.62%

SMILES: O=NN(CCCl)C(=O)NCCCl [BCNU, Carmustine]
- time to tumour regressing after the first administration of the drug (glioblastoma tumour): ≤ 2 weeks
- sensitivity of the glioblastoma cells [2]: clearly confirmed sensitivity

SMILES: N.N.[Cl][Pt][Cl] [Cisplatin]
- Annexin Pl++ Late apoptosis ([1]; 9 μg/m1): 0.19%
- Pl+ ratio within Annexin+ Non-viable ([1]; 9 μg/m1): 0.44%

SMILES: Nc1nc2[nH]cc(CCc3ccc(C(=O)N[C@@H](CCC(=O)O)C(=O)O)cc3)c2c(=O)[nH]1 [Pemetrexed]
- Annexin Pl++ Late apoptosis ([1]; 1 μM): 0.19%
- Pl+ ratio within Annexin+ Non-viable ([1]; 1 μM): 0.37%

SMILES: CCC1=C[C@@H]2CN(C1)Cc1c([nH]c3ccccc13)[C@@](C(=O)OC)(c1cc3c(cc1OC)N(C)[C@H]1[C@@](O)(C(=O)OC)[C@H](OC(C)=O)[C@]4(CC)C=CCN5CC[C@]31[C@@H]54)C2 [Vinorelbine]
- Annexin Pl++ Late apoptosis ([1]; 20 nM): 0.49%
- Pl+ ratio within Annexin+ Non-viable ([1]; 20 nM): 0.93%
- Annexin Pl++ Late apoptosis ([1]; 50 nM): 0.05%
- Pl+ ratio within Annexin+ Non-viable ([1]; 50 nM): 0.09%
